The structures appear in SMILES notation.

The test system of this experiment is AML3. Briefly: Cell proliferation of cancerous cell lines. Format: cell-based. To be noted: AML3; read-out: Antineoplastic effect of tested compounds on cell proliferation of cancerous AML3 cells, IC50.
`Cn1nnc(-c2ccc3c(c2)[nH]c2nc(Cc4ccccc4)nc(NCCCNCCCN)c23)n1`: the IC50 fell in the range of 2000 to 5000 nM. As for `C#CCOC(CNc1nc(Cc2ccccc2)nc2[nH]c3cc(C(=O)OC)ccc3c12)CN1CCCCC1` (centres unmarked), the IC50 lay within 2000 to 5000 nM.

Turning to `C#CCNCCCN(C)CCCNc1nc(Cc2ccccc2)nc2[nH]c3cc(C(=O)OC)ccc3c12`, the IC50 was in the range of 1000 to 2000 nM. For `COC(=O)c1ccc2c(c1)[nH]c1nc(Cc3ccccc3)nc(NCCCCCN(C)C)c12`, the IC50 was in the range of 500 to 1000 nM. The result for `COC(=O)c1ccc2c(c1)[nH]c1ncnc(N[C@H]3CC[C@@H](N)CC3)c12` reads 2000 to 5000 nM; that for `COC(=O)c1ccc2c(c1)[nH]c1cc(Cc3ccccc3)nc(NCCN3CCCC3)c12`, 2000 to 5000 nM. On to `COC(=O)c1cnc2c(c1)[nH]c1nc(C(C)c3ccccc3)nc(NCCCN3CCCCC3)c12` (centres unmarked), for which the IC50 was 2000 to 5000 nM.

As to `COC(=O)c1ccc2[nH]c3nc(Cc4ccccc4)nc(NCCCN4CCCCC4)c3c2c1` [drawing 103], the IC50 lay within 2000 to 5000 nM. As for `C#CCCC(=O)NCCCN(C)CCCNc1nc(Cc2ccccc2)nc2[nH]c3cc(C(=O)OC)ccc3c12`, the figure is 500 to 1000 nM. As to `CCNCCNc1nc(Cc2ccccc2)nc2[nH]c3cc(C(=O)OC)ccc3c12`, the IC50 is under 500 nM. For the molecule `COC(=O)c1ccc2c(c1)[nH]c1nc(CN(C)C)nc(NCCCN3CCCCC3)c12`, the IC50 lay within 2000 to 5000 nM. The result for `COC(=O)c1ccc2c(c1)[nH]c1nc(Cc3cccnc3)nc(N3CCC(N4CCCC4)CC3)c12` reads 2000 to 5000 nM; that for `Cn1nnc(-c2ccc3c(c2)[nH]c2ncnc(NCC(O)CN4CCCCC4)c23)n1` (centres unmarked), 1000 to 2000 nM; that for `COC(=O)c1ccc2c(c1)[nH]c1nc(Cc3cccc(C(=O)C(F)(F)F)c3)nc(NCCCN3CCCCC3)c12`, 1000 to 2000 nM. With `COC(=O)c1ccc2c(c1)[nH]c1nc(Cc3ccccc3C)nc(NCCCN3CCCCC3)c12`, the IC50 was in the range of 1000 to 2000 nM. Consider `CN1CCN(c2ccc(CNc3nc(Cc4ccccc4)nc4[nH]c5cc(-c6nnn(C)n6)ccc5c34)cc2)CC1`, for which the IC50 lay in the range of 500 to 1000 nM. The result for `COC(=O)c1ccc2c(c1)[nH]c1nc(Cc3ccccc3)nc(NCCCN(C)CC(O)COCc3ccccc3)c12` (centres unmarked) reads 2000 to 5000 nM. `COC(=O)c1ccc2c(c1)[nH]c1nc(Cc3ccccc3)nc(NCCN(C)CCN)c12`: the IC50 was in the range of 1000 to 2000 nM.

In the case of `Cn1nnc(-c2ccc3c(c2)[nH]c2ncnc(NCCCCN4CCCCC4)c23)n1`, the IC50 fell in the range of 1000 to 2000 nM. `Cn1nnc(-c2ccc3c(c2)[nH]c2nc(Cc4ccccc4)nc(NCCCN4CCCC4)c23)n1`: the IC50 was under 500 nM. In the case of `CN(C)CCCN(C)c1ncnc2[nH]c3cc(-c4nnn(C)n4)ccc3c12`, the IC50 lay in the range of 1000 to 2000 nM. For the molecule `Cn1nnc(-c2ccc3c(c2)[nH]c2ncnc(NCCCN4CCCC4)c23)n1`, the IC50 is 1000 to 2000 nM. As for `COC(=O)c1ccc2c(c1)[nH]c1nc(Cc3ccccc3)nc(Cl)c12`, the IC50 lay in the range of 1000 to 2000 nM. Take `COC(=O)c1ccc2c(c1)[nH]c1nc(Cc3ccccc3)nc(NCCCCCCN(C)C)c12`: the IC50 was in the range of 500 to 1000 nM. As for `COC(=O)c1ccc2c(c1)[nH]c1nc(Nc3ccccc3)nc(NCCCN3CCCCC3)c12`, the figure is 1000 to 2000 nM; as for `COC(=O)c1ccc2c(c1)[nH]c1nc(Cc3ccccn3)nc(NCCCN3CCCCC3)c12`, 2000 to 5000 nM. As for `CN(CCCN1CCCCC1)c1ncnc2[nH]c3cc(-c4nnn(C)n4)ccc3c12`, the figure is 1000 to 2000 nM; as for `CC(=O)NCCNc1nc(Cc2ccccc2)nc2[nH]c3cc(-c4nnn(C)n4)ccc3c12`, 2000 to 5000 nM. As for `CCn1nnc(-c2ccc3c(c2)[nH]c2ncnc(NCCCN4CCCCC4)c23)n1`, the figure is 2000 to 5000 nM. Regarding `COC(=O)c1ccc2c(c1)[nH]c1ncnc(NCCCN(C)CCCN)c12`, the IC50 was 2000 to 5000 nM. `COC(=O)c1ccc2c(c1)[nH]c1nc(Cc3ccccc3)nc(NCCCN(C)CCCNc3ncnc4[nH]c5ccccc5c34)c12`: the IC50 was 2000 to 5000 nM. For the molecule `Cn1nnc(-c2ccc3c(c2)[nH]c2ncnc(NCCCNC(=O)C(F)(F)F)c23)n1`, the IC50 fell in the range of 2000 to 5000 nM.

`COC(=O)c1ccc2c(c1)[nH]c1nc(Cc3cccc(F)c3)nc(NCCCN3CCCCC3)c12`: the IC50 was in the range of 2000 to 5000 nM. `COC(=O)c1ccc2c(c1)[nH]c1nc(Cc3ccsc3)nc(NCCCN3CCCCC3)c12`: the IC50 lay in the range of 1000 to 2000 nM. Turning to `Cn1nnc(-c2ccc3c(c2)[nH]c2nc(Cc4ccccc4)nc(NCCN)c23)n1`, the IC50 was 1000 to 2000 nM. As for `COC(=O)c1ccc2c(c1)[nH]c1cc(Cc3cccc(O)c3)nc(NCCCCN3CCCC3)c12`, the figure is 1000 to 2000 nM; as for `COC(=O)c1ccc2c(c1)[nH]c1nc(Cc3cccs3)nc(NCCCN3CCCCC3)c12`, 2000 to 5000 nM. Turning to `Cc1nc(-c2ccc3c(c2)[nH]c2nc(Cc4ccccc4)nc(NCCCN4CCCCC4)c23)no1`, the IC50 lay within 1000 to 2000 nM. On to `COC(=O)c1ccc2c(c1)[nH]c1nc(Cc3ccccc3)nc(NCC(O)CN3CCCCC3)c12` (centres unmarked), for which the IC50 lay in the range of 2000 to 5000 nM. For `COC(=O)c1cnc2c(c1)[nH]c1nc(Cc3ccc4ccccc4c3)nc(NCCCN3CCCCC3)c12`, the IC50 was in the range of 1000 to 2000 nM.

As to `COC(=O)c1ccc2c(c1)[nH]c1ncnc(NCCCN3CCCCC3)c12` [drawing 45], the IC50 was 2000 to 5000 nM.

As to `COC(=O)c1ccc2c(c1)[nH]c1nc(Cc3ccccc3)nc(NCC3CCCN3)c12` (centres unmarked), the IC50 is 2000 to 5000 nM. `COC(=O)c1ccc2c(c1)[nH]c1nc(Cc3cccc(F)c3)nc(NCCCN(C)CCCN)c12`: the IC50 was 2000 to 5000 nM. `COC(=O)c1ccc2c(c1)[nH]c1nc(Cc3ccccc3)nc(Nc3cccc(NC(C)=O)c3)c12`: the IC50 fell in the range of 2000 to 5000 nM.

As for `COC(=O)c1ccc2c(c1)[nH]c1nc(Cc3ccccc3)nc(CCCCN3CCCCC3)c12`, the IC50 lay within 1000 to 2000 nM. Take `COC(=O)c1ccc2c(c1)[nH]c1nc(Cc3ccccc3)nc(NCCCN(C)CCCN)c12`: the IC50 is 1000 to 2000 nM. For `COC(=O)c1ccc2c(c1)[nH]c1nc(Cc3ccccc3)nc(SCCCN3CCCCC3)c12`, the IC50 was 2000 to 5000 nM.

With `CN(C)CCNc1ncnc2[nH]c3cc(-c4nnn(C)n4)ccc3c12`, the IC50 lay within 500 to 1000 nM. The result for `COC(=O)c1ccc2c3c(N(C)CCCN4CCCCC4)ncnc3n(C)c2c1` reads 2000 to 5000 nM. The result for `c1ccc(-c2ccc3c(c2)[nH]c2ncnc(NCCCN4CCCCC4)c23)cc1` reads 2000 to 5000 nM.

As for `COC(=O)c1ccc2c(c1)[nH]c1nc(Cc3ccccc3)nc(NCCCN(C)CCCNC(=N)N)c12`, the IC50 is under 500 nM.

In the case of `Cn1nnc(-c2ccc3c(c2)[nH]c2nc(Cc4ccccc4)nc(NCCCCCCCCCCN)c23)n1`, the IC50 was in the range of 1000 to 2000 nM. For the molecule `CNCCNc1nc(Cc2ccccc2)nc2[nH]c3cc(C(=O)OC)ccc3c12`, the IC50 was 500 to 1000 nM. Regarding `CNS(=O)(=O)c1cccc(Nc2ncnc3[nH]c4cc(C(=O)OC)ccc4c23)c1`, the IC50 is under 500 nM. In the case of `COC(=O)c1ccc2c(c1)[nH]c1nc(Cc3ccncc3)nc(NCCCN3CCCCC3)c12`, the IC50 lay within 2000 to 5000 nM. For `COC(=O)c1ccc2c(c1)[nH]c1ncnc(NCc3ccccc3CN(C)C)c12`, the IC50 was under 500 nM.

On to `COC(=O)c1ccc2c(c1)[nH]c1nc(C)nc(NCCCN3CCCCC3)c12`, for which the IC50 was 2000 to 5000 nM.

As for `COC(=O)c1ccc2c(c1)[nH]c1nc(Cc3cccc(OC)c3)nc(NCCCN3CCCCC3)c12`, the IC50 lay within 2000 to 5000 nM.

Turning to `COC(=O)c1ccc2c(c1)[nH]c1ncnc(NC3CCC(N(C)C)CC3)c12` (centres unmarked), the IC50 lay in the range of 2000 to 5000 nM.

For `Cn1nnc(-c2ccc3c(c2)[nH]c2nc(Cc4ccccc4)nc(NCCCNCCCNC(=O)CCCC[C@@H]4SC[C@@H]5NC(=O)N[C@@H]54)c23)n1`, the IC50 was 1000 to 2000 nM. As to `Cn1nnc(-c2ccc3c(c2)[nH]c2nc(Cc4ccccc4)nc(NCCCN4CCCCC4)c23)n1`, the IC50 was 500 to 1000 nM. As for `COC(=O)c1ccc2c(c1)[nH]c1ccnc(NCCCN3CCCCC3)c12`, the IC50 was 1000 to 2000 nM. Regarding `COC(=O)c1cnc2c(c1)Cc1nc(Cc3ccccc3)nc(NCCCN(C)CCCNc3nc(Cc4ccccc4)nc4[nH]c5cc(C(=O)OC)cnc5c34)c1-2`, the IC50 was under 500 nM. The result for `COC(=O)c1ccc2c(c1)[nH]c1nc(Cc3ccc(Br)cc3)nc(NCCCN3CCCCC3)c12` reads 500 to 1000 nM; that for `COC(=O)c1ccc2c(c1)[nH]c1cc(Cc3cccc(OC)c3)nc(NCCCCN3CCCC3)c12`, 1000 to 2000 nM; that for `c1csc(-c2ccc3c(c2)[nH]c2ncnc(NCCCN4CCCCC4)c23)c1`, 2000 to 5000 nM. For `COC(=O)c1ccc2c(c1)[nH]c1ncnc(NCCCN3CCCCC3C)c12` (centres unmarked), the IC50 lay in the range of 2000 to 5000 nM. For `Cn1nnc(-c2ccc3c(c2)[nH]c2cc(Cc4ccccc4)nc(NCCCN4CCCCC4)c23)n1`, the IC50 was in the range of 1000 to 2000 nM. Take `COC(=O)c1ccc2c(c1)[nH]c1nc(C(O)c3ccccc3)nc(NCCCN3CCCCC3)c12` (centres unmarked): the IC50 is 500 to 1000 nM. As for `Cn1nnc(-c2ccc3c(c2)[nH]c2nc(Cc4ccccc4)nc(N[C@H]4CC[C@H](N(C)C)CC4)c23)n1`, the figure is 500 to 1000 nM; as for `COC(=O)c1ccc2c(c1)[nH]c1ncnc(NCC(C)(C)CN)c12`, 2000 to 5000 nM.

For the molecule `COC(=O)c1ccc2c(c1)[nH]c1nc(C(=O)c3ccccc3)nc(NCCCN3CCCCC3)c12`, the IC50 fell in the range of 2000 to 5000 nM. For `CCCCCc1nc(NCCCN2CCCCC2)c2c(n1)[nH]c1cc(C(=O)OC)ccc12`, the IC50 fell in the range of 500 to 1000 nM.

As to `CNCCCNc1ncnc2[nH]c3cc(C(=O)OC)ccc3c12`, the IC50 was 2000 to 5000 nM. In the case of `CN(CCCN)CCCNc1nc(Cc2ccccc2)nc2[nH]c3cc(-c4nnn(C)n4)ccc3c12`, the IC50 was 500 to 1000 nM. `Cn1nnc(-c2ccc3c(c2)[nH]c2ncnc(N[C@H]4CC[C@H](N(C)C)CC4)c23)n1`: the IC50 is 500 to 1000 nM. The result for `COC(=O)c1ccc2c(c1)[nH]c1nc(Cc3ccccc3)nc(NCCNC3=NCCC3)c12` reads 500 to 1000 nM; that for `COC(=O)c1ccc2c3c(NCCCN4CCCCC4)ncnc3n(C)c2c1`, 1000 to 2000 nM.

`COC(=O)c1ccc2c(c1)[nH]c1ncnc(NCCN3CCCCC3)c12`: the IC50 is 2000 to 5000 nM. For the molecule `COC(=O)c1ccc2c(c1)[nH]c1nc(C)nc(NCCCN(C)CCCN)c12`, the IC50 lay within 2000 to 5000 nM.

For the molecule `COC(=O)c1ccc2c(c1)[nH]c1nc(Cc3ccsc3)nc(N[C@H]3CC[C@H](N)CC3)c12`, the IC50 was in the range of 1000 to 2000 nM. As for `COC(=O)c1ccc2c(c1)[nH]c1nc(Cc3ccccc3)nc(Nc3cccc(N)c3)c12`, the figure is 2000 to 5000 nM; as for `COC(=O)c1ccc2c(c1)[nH]c1nc(CC3CCCCC3)nc(NCCCN3CCCCC3)c12`, 2000 to 5000 nM.

For the origin of these results see patent publication US20230073512A1, “MODULATORS OF CULLIN 3 ADAPTOR KBTBD4 AS ANTI-CANCER COMPOUNDS” (UNIVERSITE DE MONTREAL, priority 2019, published 2023).
